Laboratory results: US5464859A, “Benzospiroalkene derivatives” (Adir et Compagnie, priority 1993, dated 1995)
Where a name gives a salt, the structure may show the parent alone.

Key:
1 or 2 -adrenergic = experiment: In vivo study on amyelous rats (arterial pressure increase, with or without prazosin or yohimbine); design: species or system Male Sprague-Dawley rats; conditions: for ED (20 mmHg): Rattus norvegicus, iv, Control (no antagonist), increasing cumulative doses every 20 seconds, tertatolol pretreatment, read-out: C20 (concentration which increases the pressure by 20 mmHg); for Ratio C20 treated/C20 control: pretreated with yohimbine (1 mg/kg)
Description: In vivo study on AMYELOUS RATS
Male Sprague-Dawley rats (300-400 g) are anesthatized with ether. A cannula is inserted in the trachea, the spinal cord is destroyed using a steel rod and the animal is immediately placed under artificial respiration. The vagus nerves are sectioned. The carotid arteries are ligatured and a catheter is placed in one and is used to record the arterial pressure. Three other catheters are placed in the jugular veins and the vein of the penis and are used for injections. The temperature of the animals is maintained at 36° C. The animal is pretreated with an injection of tertatolol ([…]). The animal is also pretreated 10 minutes afterwards with prazosin ([…]) or yohimbine (1 mg/kg) when it is wished to determine the 1 or 2 -adrenergic properties of the product. Ten minutes later, increasing cumulative doses of product are injected every 20 seconds. The medal pressure variations are detected using a P23XL Statham pressure cell and are recorded. The pressure values are expressed in mmHg. This experiment makes it possible to calculate the concentration which increases the pressure by 20 mmHg (C2.sbsb.0) by non-linear regression according to the model of the Michaelis and Menten mass action law as described above. The maximum effect obtained is then converted to a percentage with respect to the maximum effect caused by phenylephrine. The 1 or 2 -adrenergic components of the product are estimated using the ratio of the C2.sbsb.0 values obtained in the presence of prazosin or of yohimbine to the values obtained in the absence of these antagonists. In amyelous rats, the products of the invention induce hypertensions which are inhibited more by prazosin than by yohimbine.

saphenous veins = experiment: In vitro contraction of dog saphenous veins (agonist concentration/effect curve); conditions: Canis lupus familiaris, VEIN; for Emax: maximum effect relative to maximum effect caused by 100 mM KCl, read-out: Max (% KCl); for EC50: saphenous vein rings, dog, 37° C.
Protocol: (§1) In vitro study on the femoral arteries and saphenous veins of dogs
(§2) The technique used is based on that described by Fowler et at. (J. Pharmacol. Exp. Ther., 229, 712-718, 1984). Male or female mongrel dogs weighing approximately 15-25 kg were used as organ sources. The animals are anesthetized with pentrobarbital (30 mg/kg, intravenously). Incisions are made in the legs and the vessels are withdrawn. They are placed in Krebs-Ringer liquid (NaCl 118 mM, NaHCO3 25 mM, Glucose 10 mM, KCl 4.7 mM, CaCl2 1.25 mM, MgSO4 1.19 mM, KH2 PO4 1.14 mM) at room temperature and while bubbling with carbogen (95% O2, 5% CO2). These vessels are then carefully freed from their fat, then cut into rings with a width of 2 mm and mounted under a base tension of 4 g (femoral arteries) or 1 g (saphenous veins) in vessels thermostatically controlled at 37° C. containing Krebs-Ringer liquid through which carbogen is constantly bubbling. A lower hook constitutes the set point whereas the upper hook is connected to an isometric force sensor. The tension variations are digitized, stored on disk and processed by a computer system. After mounting, the organs, are left at rest for 90 minutes, rinsings being carried out every 30 min. After readjusting the base tension, a contraction is caused by a single dose of KCl (100 mM). After stabilisation, washing and returning to the base line, a contraction is provoked by a single dose of phenylephrine (submaximal concentration) in order to regularize the following contractions. After washing and returning to the base line, a concentration/effect curve is produced by addition of cumulative doses of agonist (the spacing between the doses is a half-log). This experiment makes it possible to calculate the 50% effective concentration (EC5.sbsb.0) in the following way: the tension values are first converted to percentages with respect to the maximum effect caused by 100 mM of KCl. This EC5.sbsb.0 is determined by non-linear regression by the Simplex method (M. S. Caceci, Byte, 340-362, 1984), calculated according to the model of the law of mass action of L. Michaelis and M. L. Menten (Biochem. Zeitschrifft, 49, 333-369, 1913). E=(Emax*C^n)(EC^n +C^n) where E=effect, Emax=maximum effect, C=concentration, EC=EC5.sbsb.0 and n=Hill number.

femoral arteries = experiment: In vitro contraction of dog femoral arteries (agonist concentration/effect curve); conditions: Canis lupus familiaris, ARTERY; for EC50: femoral artery rings, dog, 37° C.; for Emax: maximum effect relative to maximum effect caused by 100 mM KCl, read-out: Max (% KCl)
Protocol: as §1, §2

Row | EC50 (saphenous veins) | EC50 (femoral arteries) | Compound | ED (20 mmHg) (1 or 2 -adrenergic) | Ratio C20 treated/C20 control (1 or 2 -adrenergic) | Emax (saphenous veins) | Emax (femoral arteries)
1 | – | – | CCOc1ccc(OC)c2c1CCC1(CNC=N1)C2 (stereo not drawn) [Example 2, Spiro[(1,3-diazacyclopent-1-ene)-5,2'-(5'-ethoxy-8'-methoxy-1',2',3',4'-tetrahydronaphthalene)]fumarate] | 0.06 µg/kg | 5 | – | –
2 | – | – | CCOc1ccc(OCC)c2c1CCC1(CNC=N1)C2 (stereo not drawn) [Example 3, Spiro[(1,3-diazacyclopent-1-ene)-5,2'-(5',8'-diethoxy-1',2',3',4'-tetrahydronaphthalene) fumarate] | 0.6 µg/kg | 8 | – | –
3 | 6.4 µM | 1.5 µM | COc1cccc2c1CCC1(CNC=N1)C2 (stereo not drawn) [Example 5, Spiro[(1,3-diazacyclopent-1-ene)-5,2'-(5'-methoxy-1',2',3',4'-tetrahydronaphthalene)]] | – | – | 100% | 93%
4 | 0.12 µM | 0.03 µM | COc1ccc(OC)c2c1CCC1(CNC=N1)C2 (single isomer, unassigned) [Example 7, Spiro[(1,3-diazacyclopent-1-ene)-5,2'-(5',8'-dimethoxy-1',2',3',4'-tetrahydro-naphthalene)]fumarate, isomer α] | – | – | 109% | 95%
5 | 0.2 µM | 0.16 µM | COc1ccc(OC)c2c1CCC1(CNC=N1)C2 (stereo not drawn) [Example 1, Spiro[(1,3-diazacyclopent-1-ene)-5,2'-(5',8'-dimethoxy-1',2',3',4'-tetrahydronaphthalene)]fumarate] | – | 11 | 100% | 72%
6 | 0.8 µM | 0.08 µM | COc1ccc(SC)c2c1CC1(CC2)CNC=N1 (stereo not drawn) [Example 6, Spiro[(1,3-diazacyclopent-1-ene)-5,2'-(5'-methylthio-8'-methoxy-1',2',3',4'-tetrahydronaphthalene)]fumarate] | – | – | 98% | 85%
